From patent US20150338330A1, “Method for Comprehensive Assessment of Platelet Aggregation” (FUJIMORI KOGYO CO., LTD.,, priority 2012, published 2015)

Legend:
Type in all cases: cell-based
platelets [1] = assay: Filter back-pressure measurement of platelet aggregation, ADP reagent (final 5.6 μM), citrated blood; design: area under the curve of the pressure waveform: unit not given beside the values; details: for area under the curve of the pressure waveform: 60 μl/minute, 5 minutes
Procedure: (§1) The apparatus in FIG. 1 was prepared for use in the following experiments.
(§2) As the container 1 (blood reservoir), a cylindrical acrylic container having a capacity of 450 μl (inner diameter, 6 mm; depth, 16 mm) was used.
(§3) As the filter, a circular nickel micromesh filter having 30 μm×30 μm square openings (pitch size, 45 μm) and a diameter of 1 mm, placed at the center of the filter section was used.
To the blood reservoir, 13 μl of […] ADP reagent (Dynabite GmbH, Germany) (final concentration, 5.6 μM) was added, and 450 μl of blood collected in a Terumo blood collection tube (Venoject, containing 3.13% sodium citrate) was added thereto. The resulting mixture was mixed in the blood reservoir, and the filter device was connected to the blood reservoir. One minute after the mixing of the blood with the ADP reagent, mineral oil was injected into the blood reservoir at a flow rate of 60 μl/minute to inject the blood into the filter device.
The back pressure exerted on the mineral oil was continuously monitored for 5 minutes at intervals of 1 second using the pressure sensor. In addition, the same measurement was carried out for blood to which AR-C66096 (platelet P2Y12 receptor inhibitor; Tocris Bioscience, UK) was added to a final concentration of 25, 50, 100, or 250 nM.

platelets [2] = assay: Multiplate impedance-based whole blood platelet aggregation, ADP (final 6.5 μM); details: ADP 6.5 μM
Procedure: To provide controls, whole blood platelet aggregation was similarly measured for blood to which AR-C66096 was added to a final concentration of 25, 50, 100, or 250 nM, using Multiplate (impedance-based platelet aggregability analyzer, Dynabite GmbH). As the platelet-activating reagent, ADP (final concentration, 6.5 μM) was used. […] That is, in the absence of a physical load by blood flow or the like, platelet aggregates that have once adhered/aggregated to the electrode were maintained without breakdown, leading to the increase in the electric resistance.

platelets [3] = assay: Filter back-pressure measurement of platelet aggregation, arachidonic acid (6.25 mM or 10 mM), citrated blood
Procedure: as §1, §2, §3
To the blood reservoir, 30 or 50 μl (final concentration, 6.25 mM or 10 mM, respectively) of 100 mM arachidonic acid (manufactured by Dynabite GmbH) was added, and 450 μl of blood collected in a Terumo blood collection tube (Venoject, containing 3.13% sodium citrate) was added thereto. After mixing the resulting mixture, the filter device was connected to the blood reservoir. One minute after the mixing of the blood with the collagen reagent, mineral oil was injected into the blood reservoir at a flow rate of 60 μl/minute to inject the blood into the filter device.
The back pressure exerted on the mineral oil was continuously monitored for 5 minutes at intervals of 1 second using the pressure sensor. In addition, the same measurement was carried out for a mixture prepared by mixing 50 μl of an arachidonic acid reagent with blood to which aspirin was added to a final concentration of 100 μM.

platelets [4] = assay: Filter back-pressure measurement of platelet aggregation, collagen reagent (final 0.7 μg/ml), citrated blood; details: aspirin 100 μM; collagen 0.7 μg/ml
Procedure: (§4) The apparatus in FIG. 1 was prepared for use in the following experiments. As the container 1 (blood reservoir), a cylindrical acrylic container having a capacity of 450 μl (inner diameter, 6 mm; depth, 16 mm) was used. As the filter, a circular nickel micromesh filter having 30 μm×30 μm square openings (pitch size, 45 μm) and a diameter of 1 mm, placed at the center of the filter section was used. To the blood reservoir, 13 μl of 25 μg/ml (final concentration, 0.7 μg/ml) collagen reagent (manufactured by Dynabite GmbH) was added, and 450 μl of blood collected in a Terumo blood collection tube (Venoject, containing 3.13% sodium citrate) was added thereto. After mixing the resulting mixture, the filter device was connected to the blood reservoir. One minute after the mixing of the blood with the collagen reagent, mineral oil was injected into the blood reservoir at a flow rate of 60 μl/minute to inject the blood into the filter device. The back pressure exerted on the mineral oil was continuously monitored for 5 minutes at intervals of 1 second using the pressure sensor. In addition, the same measurement was carried out for blood to which aspirin was added to a final concentration of 100 μM, or blood to which both 50 μM aspirin and 250 μM AR-C66096 were added.

platelets [5] = assay: Filter back-pressure measurement of platelet aggregation, PAR4-activating reagent (AYPGKF), citrated blood; details: aspirin 100 μM
Procedure: as §4, with “reservoir, 20” for “reservoir, 13”, “of 20 mM PAR4-activating” for “of 25 μg/ml (final concentration, 0.7 μg/ml) collagen”, “reagent (peptide sequence, AYPGKF; manufactured” for “reagent (manufactured”, “sensor. The” for “sensor. In addition, the”, “100 μM.” for “100 μM, or blood to which both 50 μM aspirin and 250 μM AR-C66096 were added.”

platelets [6] = assay: Filter back-pressure measurement of platelet aggregation, PAR1-activating reagent (SFLLRN), citrated blood; details: aspirin 100 μM
Procedure: as §4, with “reservoir, 20” for “reservoir, 13”, “of 1 mM PAR1-activating” for “of 25 μg/ml (final concentration, 0.7 μg/ml) collagen”, “reagent (peptide sequence, […]; manufactured” for “reagent (manufactured”, “reservoir. […]” for “reservoir. One minute after the mixing of the blood with the collagen reagent, mineral oil was injected into the blood reservoir at a flow rate of 60 μl/minute to inject the blood into the filter device.”, “sensor. The” for “sensor. In addition, the”, “100 μM.” for “100 μM, or blood to which both 50 μM aspirin and 250 μM AR-C66096 were added.”

platelets [7] = assay: Multiplate impedance-based whole blood platelet aggregation, collagen (final 3.2 μg/ml); details: aspirin 100 μM; collagen 3.2 μg/ml
Procedure: To provide controls, whole blood platelet aggregation was similarly measured for blood to which aspirin was added to a final concentration of 100 μM, and blood to which both 50 μM aspirin and 250 μM AR-C66096 were added, using Multiplate (impedance-based platelet aggregability analyzer, Dynabite GmbH). As the platelet-activating reagent, collagen (final concentration, 3.2 μg/ml) was used.

platelets [8] = assay: Filter back-pressure measurement, collagen reagent (final 1.4 μg/ml), repeated 5 times; details: collagen final 1.4 μg/ml; 5 times of measurement; no inhibitor
Procedure: as §1, §2, §3
To the blood reservoir, 13 μl of 50 μg/ml (final concentration, 1.4 μg/ml) collagen reagent (manufactured by Dynabite GmbH) was added, and 450 μl of blood collected in a Terumo blood collection tube (Venoject, containing 3.13% sodium citrate) was added thereto. After mixing the resulting mixture, the filter device was connected to the blood reservoir. One minute after the mixing of the blood with the collagen reagent, mineral oil was injected into the blood reservoir at a flow rate of 60 μl/minute to inject the blood into the filter device.
The back pressure exerted on the mineral oil was continuously monitored for 5 minutes at intervals of 1 second using the pressure sensor. The measurement was repeated 5 times.

[9] = AR-C66096 25-250 nM, ADP 5.6 μM

Which results are given for `CCCSc1nc(N)c2ncn([C@@H]3O[C@H](COP(=O)(O)OP(=O)(O)C(F)(F)P(=O)(O)O)[C@@H](O)[C@H]3O)c2n1` [AR-C66096]?
area under the curve of the pressure waveform (platelets [1]; AR-C66096 25 nM, ADP 5.6 μM): 11.75; stability and persistence of platelet aggregates (platelets [1]; AR-C66096 50 nM or 100 nM, arch-shaped pressure curves): suppressed; area under the curve of the pressure waveform (platelets [1]; AR-C66096 50 nM, ADP 5.6 μM): 8.7; area under the curve of the pressure waveform (platelets [1]; AR-C66096 100 nM, ADP 5.6 μM): 8.05; area under the curve of the pressure waveform (platelets [1]; AR-C66096 250 nM, ADP 5.6 μM): 7.95; beginning of the pressure increase (platelets [1]; [9]): delayed; pressure increase (platelets [1]; [9]): suppressed the pressure increase in a concentration-dependent manner; AUC (Multiplate impedance) (platelets [2]; AR-C66096 25 nM): 23; AUC (Multiplate impedance) (platelets [2]; AR-C66096 50 nM): 19; AUC (Multiplate impedance) (platelets [2]; AR-C66096 100 nM): 15; AUC (Multiplate impedance) (platelets [2]; AR-C66096 250 nM): 17; concentration dependence of AUC (Multiplate) (platelets [2]; AR-C66096 25-250 nM): no concentration dependence was found

With `CCCCC/C=C\C/C=C\C/C=C\C/C=C\CCCC(=O)O` [arachidonic acid] as the molecule, how does the “platelet activation / pressure” value (platelets [3]; arachidonic acid 6.25 mM or 10 mM) read?
Its value is “activated platelets to increase the pressure”.

What does the source list for `CC(=O)Oc1ccccc1C(=O)O` [aspirin]?
beginning of the pressure increase (platelets [4]): delayed; pressure increase (platelets [4]): suppressed; aggregation waveform obtained by the PAR4-activating peptide (platelets [5]): not inhibited; aggregation waveform obtained by the PAR1-activating peptide (platelets [6]): not inhibited; AUC of the electric resistance (Multiplate) (platelets [7]): 28; effect on Multiplate aggregation (platelets [7]): an effect of aspirin could be found; pressure increase (platelets [3]; aspirin 100 μM, 50 μl arachidonic acid reagent (10 mM)): suppressed

collagen was tested. Which “area under the curve of the pressure waveform (mean±SD)” value (platelets [8]) did it give?
The value was 15.11±0.8.
